Results as given in publication PMC7795171, “In Silico and In Vitro Analysis of Major Cannabis-Derived Compounds as Fatty Acid Amide Hydrolase Inhibitors” (Molecules, 2020).
Like-named read-outs stand apart in the source and are kept apart here.

How the values were obtained:
[1] = target: T1, rFAAH (Rattus norvegicus, UniProt P97612); experiment: FAAH activity assay, rat brain membranes, [14C]AEA hydrolysis; assay type: biochemical; conditions: for % In Vitro Inhibition (At 100 µm): rFAAH, compound at 100 µm
T1 construct: from tissue; host or cells: rat brain membranes
T1 sequence (P97612 1-579): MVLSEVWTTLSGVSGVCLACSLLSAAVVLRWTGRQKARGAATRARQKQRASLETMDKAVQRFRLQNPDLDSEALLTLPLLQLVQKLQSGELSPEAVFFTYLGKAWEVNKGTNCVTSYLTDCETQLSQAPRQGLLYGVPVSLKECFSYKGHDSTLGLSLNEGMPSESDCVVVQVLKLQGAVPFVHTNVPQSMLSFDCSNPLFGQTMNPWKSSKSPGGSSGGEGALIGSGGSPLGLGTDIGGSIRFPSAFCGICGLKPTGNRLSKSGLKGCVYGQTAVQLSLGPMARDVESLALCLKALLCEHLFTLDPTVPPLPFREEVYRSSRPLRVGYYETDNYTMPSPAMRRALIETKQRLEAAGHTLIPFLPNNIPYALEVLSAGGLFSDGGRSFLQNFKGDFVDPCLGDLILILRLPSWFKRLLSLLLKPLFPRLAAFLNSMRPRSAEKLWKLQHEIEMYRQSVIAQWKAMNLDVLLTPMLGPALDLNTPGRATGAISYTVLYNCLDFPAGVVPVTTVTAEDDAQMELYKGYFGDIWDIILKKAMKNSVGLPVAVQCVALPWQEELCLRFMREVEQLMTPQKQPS
Experimental: (§1) Rat brains were homogenized in 50 mM Tris-HCl (50 mM, pH 7.4), and were centrifuged sequentially at 800× g and 20,000× g; then, the supernatants were discharged, and rFAAH activity was tested in membrane preparations incubated with 10 µM [^14C]AEA at 37 °C for 15 min (pH = 9.0). The reaction was stopped with a 1:1 (v/v) mixture of chloroform/methanol and the release of [^14C]ethanolamine in the aqueous phase was measured as reported. Purified human FAAH was assayed in the same way as rFAAH.

[2] = target: T2, hFAAH (Homo sapiens, UniProt O00519); experiment: FAAH activity assay, purified human FAAH, [14C]AEA hydrolysis; assay type: biochemical
T2 construct: purchased Cayman Chemical Company
T2 sequence (O00519 1-579): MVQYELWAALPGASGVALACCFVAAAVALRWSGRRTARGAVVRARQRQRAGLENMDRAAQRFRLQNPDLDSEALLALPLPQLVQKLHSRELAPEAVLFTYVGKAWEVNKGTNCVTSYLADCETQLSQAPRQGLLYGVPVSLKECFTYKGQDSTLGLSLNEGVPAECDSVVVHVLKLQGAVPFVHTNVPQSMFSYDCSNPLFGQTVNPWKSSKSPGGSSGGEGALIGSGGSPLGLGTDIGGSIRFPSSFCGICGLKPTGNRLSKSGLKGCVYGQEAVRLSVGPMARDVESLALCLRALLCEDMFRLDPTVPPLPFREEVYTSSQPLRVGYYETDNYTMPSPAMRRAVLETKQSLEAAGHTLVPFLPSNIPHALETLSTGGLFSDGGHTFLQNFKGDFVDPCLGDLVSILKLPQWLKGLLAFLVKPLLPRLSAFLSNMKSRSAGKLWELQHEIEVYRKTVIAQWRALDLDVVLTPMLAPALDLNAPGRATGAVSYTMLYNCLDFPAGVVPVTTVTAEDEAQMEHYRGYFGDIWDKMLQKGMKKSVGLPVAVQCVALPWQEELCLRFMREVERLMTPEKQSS
Experimental: as §1

[3] = tested on: TRPA1 channels; design: method as in PMID 21726418; conditions: read-out: EC50, agonist of TRPA1 channels; cited from earlier work
[4] = tested on: FAAH; design: method as in PMID 21392988; conditions: non-covalent inhibitor co-crystallized in 3QK5; read-out: half-maximal inhibitory concentration (IC50); cited from earlier work
[5] = rat brain membranes, 10 µM [14C]AEA, 37 °C, 15 min, pH 9.0, dose-response 0–100 µM, read-out: IC50 Towards rFAAH
[6] = purified human FAAH, 10 µM [14C]AEA, 37 °C, 15 min, pH 9.0, dose-response 0–100 µM, read-out: IC50 Towards hFAAH

For `C=C1CC/C=C(\C)CC[C@@H]2[C@@H]1CC2(C)C` [BCP, β-caryophyllene], the “% In Vitro Inhibition (At 100 µm)” value [1] was 18%, the IC50 [1, 5] was > 100 µM and the IC50 [2, 6] was > 100 µM.

For `CCCCCc1cc(O)c2c(c1)OC(C)(CCC=C(C)C)C=C2` (stereo not shown) [CBC, cannabichromene], the EC50 [3] is listed as 0.09 µM, the “% In Vitro Inhibition (At 100 µm)” value [1] is listed as 51% and the IC50 [1, 5] is listed as ~100 µM. The IC50 [2, 6] was > 100 µM.

With `C=C(C)[C@@H]1CCC(C)=C[C@H]1c1c(O)cc(CCCCC)cc1O` [CBD, cannabidiol, reference compound] the IC50 [2, 6] was > 100 µM.

In the case of `CCCCCc1cc(O)c(C/C=C(\C)CCC=C(C)C)c(O)c1` [CBG, cannabigerol], the “% In Vitro Inhibition (At 100 µm)” value [1] is reported as 53%, the IC50 [1, 5] is reported as ~100 µM and the IC50 [2, 6] is reported as > 100 µM.

With `CCCCCc1cc(O)c2c(c1)OC(C)(C)c1ccc(C)cc1-2` [CBN, cannabinol] the IC50 [1] was 60 ± 10 µM, the “% In Vitro Inhibition (At 100 µm)” value [1] was 65% and the IC50 [2] was ~100 µM.

For `Cc1c([C@H]2CCCN(c3nccc(-c4cc5ccccc5s4)n3)C2)c2cccnc2n1CC#N` [QK5], the IC50 [4] is given as 0.018 µM.

For `CCCc1cc(O)c2c(c1)OC(C)(C)[C@@H]1CCC(C)=C[C@@H]21` [THCV, Δ^9-tetrahydrocannabivarin], the IC50 [1] was > 100 µM, the “% In Vitro Inhibition (At 100 µm)” value [1] was 30% and the IC50 [2] was > 100 µM.

In the case of `NC(=O)c1cccc(-c2cccc(OC(=O)NC3CCCCC3)c2)c1` [URB597, reference compound], the inhibition at 10 µM ([2]; read-out: Inhibition of hFAAH activity compared to controls) is reported as > 99.5%.
